Key:
[1] = tested on: hESC-derived lateral mesoderm; assay: Lateral mesoderm patterning, qPCR; format: cell-based, human
Description: Subsequently, day 1 anterior primitive streak was briefly washed (DMEM/F12) and differentiated towards day 2 paraxial mesoderm for 24 hours (1 μM A-83-01+3 μM CHIR99021+250 nM LDN-193189+20 ng/mL FGF2). Separately, day 1 mid primitive streak was differentiated towards day 2 lateral mesoderm for 24 hours (1 μM A-83-01+30 ng/mL BMP4+1 μM C59; with 2 μM SB-505124 sometimes used instead of A-83-01).
C) To reveal the possible identity of non-cardiac mesoderm lineages that were contaminating cardiac mesoderm-containing cultures, NKX2.5-GFP hESCs were differentiated towards mid primitive streak (day 1) and were differentiated towards a heterogeneous population containing cardiac mesoderm (day 3) by treatment with SB-505124+BMP4+C59 (without FGF2) on days 2-3 of differentiation. FACS was performed on day 3 to purify either NKX2.5-GFP^+ or NKX2.5-GFP^− cells (top subpanels) which were sorted for qPCR (bottom subpanels). Gene expression was normalized to expression of a gene in the NKX2.5-GFP^+ fraction (dotted line). D) Timecourse of gene expression in hESCs differentiating towards mid primitive streak and lateral mesoderm, with treatment by SB-505124+BMP4+C59 on days 2-3 of differentiation. […] G) To assess whether a stabilized vitamin C analog (ascorbic acid-2-phosphate) (AA2P) enhanced cardiac mesoderm differentiation into cardiomyocytes, day 4 hESC-derived cardiac mesoderm was exposed to BMP4 (30 ng/mL)+XAV939 (1 μM) for 48 hours in the presence or absence of 200 μg/mL AA2P and qPCR was conducted of day 6 populations; qPCR data were normalized such that expression values in the highest-expressing sample was normalized=1.0. […] J) In the mouse embryo, endocardium (progenitors to heart-affiliated endothelium) are marked by transient coexpression of pan-heart marker Nkx2.5 together with endothelial markers (Ferdous et al., 2009; Stanley et al., 2002).

lateral mesoderm = assay: Forelimb versus hindlimb progenitor specification from lateral mesoderm; format: cell-based, human; conditions: day 2-3, in the context of BMP and WNT activation
Description: Undifferentiated hPSCs (wild-type H7 as well as TBX5-Venus V19-2 H9 hESCs) were maintained in mTeSR1 media on Geltrex-coated plates. As described, they were differentiated into mid primitive streak for 24 hours (D0-1; 30 ng/mL Activin+40 ng/mL BMP4+6 μM CHIR99021+20 ng/mL FGF2+100 nM PIK90) and subsequently differentiated into lateral mesoderm (D1-2; 1 μM A-83-01+30 ng/mL BMP4+1 μM C59), with the inclusion of 50 nM of TTNPB or 2 μM ATRA on D1-2 for trunk lateral mesoderm that was subsequently competent for forelimb differentiation.
Day 2 trunk lateral mesoderm was differentiated into day 3 forelimb progenitors (D2-3; 1 μM A-83-01+1 μM DMH1+3 μM CHIR99021). By contrast, day 2 non-trunk lateral mesoderm was differentiated into day 3 hindlimb progenitors (D2-3; 25 ng/mL Activin+1 μM DMH1+3 μM CHIR99021).

Molecule | lateral mesoderm fate (qPCR) ([1]; day 2 lateral mesoderm, SB-505124+BMP4 with CHIR99021 or C59, 24 hours) | pan-lateral mesoderm marker FOXF1 expression ([1]; last 12 hrs C59 or 3 μM CHIR in addition to BS) | hindlimb transcription factors TBX4 and PITX1 expression (lateral mesoderm)
Cc1cnc(-c2cnc(NCCNc3ccc(C#N)cn3)nc2-c2ccc(Cl)cc2Cl)[nH]1 [CHIR99021, 6-[[2-[[4-(2,4-Dichlorophenyl)-5-(5-methyl-1H-imidazol-2-yl)-2-pyrimidinyl]amino]ethyl]amino]-3-pyridinecarbonitrile] | specified a posterior lateral mesoderm/forelimb bud fate (PRRX1) | not markedly changed | 
Activin: TGFβ agonist (protein, UniProt P08476 311-426, looked up, Inhibin beta A chain, TGFβ agonist) Inhibin beta A chain: GLECDGKVNICCKKQFFVSFKDIGWNDWIIAPSGYHANYCEGECPSHIAGTSGSSLSFHSTVINHYRMRGHSPFANLKSCCVPTKLRPMSMLYYDDGQNIIKKDIQNMIVEECGCS |  |  | strongly induced the hindlimb transcription factors TBX4 and PITX1

From US10787640B2, “Producing mesodermal cell types and methods of using the same” (The Board of Trustees of the Leland Stanford Junior …, priority 2015, dated 2020)
